We go through 9 molecules from ChEMBL document CHEMBL5053503 (J Med Chem, 2021).

Data set [1] has as its target T1, 5-hydroxytryptamine receptor 2B (Homo sapiens, UniProt P41595). In words: biochemical.
The target of data set [2] is T2, 5-hydroxytryptamine receptor 1A (Homo sapiens, UniProt P08908).
T2 sequence (P08908 whole entry): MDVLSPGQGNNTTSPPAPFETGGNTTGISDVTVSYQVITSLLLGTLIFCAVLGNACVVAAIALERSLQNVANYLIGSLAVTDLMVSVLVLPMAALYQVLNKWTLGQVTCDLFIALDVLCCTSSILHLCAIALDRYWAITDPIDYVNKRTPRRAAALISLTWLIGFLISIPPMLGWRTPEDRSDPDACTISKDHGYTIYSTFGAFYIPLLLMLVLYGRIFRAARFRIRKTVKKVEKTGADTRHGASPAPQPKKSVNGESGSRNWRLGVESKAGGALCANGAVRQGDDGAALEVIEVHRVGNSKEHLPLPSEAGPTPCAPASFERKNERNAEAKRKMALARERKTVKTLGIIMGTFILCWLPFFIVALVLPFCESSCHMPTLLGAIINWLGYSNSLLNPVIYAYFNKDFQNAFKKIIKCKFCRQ
In words: Displacement of [3H][…] from human recombinant 5-HT1A receptor expressed in CHO cells measured after 60 to 90 mins by radioligand completion assay relative to control. It is filed as cell-based.

For data set [3], the target named is T3, 5-hydroxytryptamine receptor 2A (Homo sapiens, UniProt P28223). In words: Displacement of [125I](+/-)DOI from human recombinant 5-HT2A receptor expressed in HEK293 cells at 100 nM measured after 60 to 90 mins by radioligand completion assay relative to control. It is filed as cell-based. Particulars: time 60-90 min.
Data set [4] has as its target T4, 5-hydroxytryptamine receptor 1A (Homo sapiens) (UniProt P08908).
T4 sequence (whole entry): T2 sequence (P08908 whole entry)
Nature of the data set: Displacement of [3H][…] from human recombinant 5-HT1A receptor expressed in cells at 100 nM measured after 60 to 90 mins by radioligand completion assay relative to control. It is filed as cell-based. As to conditions: time 60-90 min.

Data set [5] concerns the target T3, 5-hydroxytryptamine receptor 2A. In words: Displacement of [125I](+/-)DOI from human recombinant 5-HT2A receptor expressed in HEK293 cells at 10 uM measured after 60 to 90 mins by radioligand completion assay relative to control. Particulars: time 60-90 min. Type of data set: cell-based.
Data set [6] has as its target T5, 5-hydroxytryptamine receptor 2C (Homo sapiens) (UniProt P28335).
T5 sequence (whole entry): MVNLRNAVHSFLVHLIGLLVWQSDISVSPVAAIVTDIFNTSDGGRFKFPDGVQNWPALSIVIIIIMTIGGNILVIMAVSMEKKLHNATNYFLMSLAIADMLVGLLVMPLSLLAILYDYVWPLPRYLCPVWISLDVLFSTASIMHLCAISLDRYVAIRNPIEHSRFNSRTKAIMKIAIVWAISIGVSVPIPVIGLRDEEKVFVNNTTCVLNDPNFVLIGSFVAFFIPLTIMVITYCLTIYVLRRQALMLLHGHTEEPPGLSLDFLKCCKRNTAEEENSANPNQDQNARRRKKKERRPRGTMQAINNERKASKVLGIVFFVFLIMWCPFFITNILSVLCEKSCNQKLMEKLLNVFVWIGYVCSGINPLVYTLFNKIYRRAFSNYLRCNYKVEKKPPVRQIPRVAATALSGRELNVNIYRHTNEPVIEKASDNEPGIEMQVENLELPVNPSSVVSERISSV
In words: Displacement of [125I](+/-)DOI from human recombinant 5-HT2C receptor expressed in CHO cells at 100 nM measured after 60 mins by radioligand completion assay relative to control. It is filed as cell-based.

In data set [7] the target is T1, 5-hydroxytryptamine receptor 2B. Nature of the data set: Displacement of [125I](+/-)DOI from human recombinant 5-HT2B receptor expressed in CHO cells at 10 uM measured after 60 mins by radioligand completion assay relative to control. It is filed as cell-based.
Data set [8] has as its target T6, 5-hydroxytryptamine receptor 3A (Homo sapiens) (UniProt P46098).
T6 sequence (whole entry): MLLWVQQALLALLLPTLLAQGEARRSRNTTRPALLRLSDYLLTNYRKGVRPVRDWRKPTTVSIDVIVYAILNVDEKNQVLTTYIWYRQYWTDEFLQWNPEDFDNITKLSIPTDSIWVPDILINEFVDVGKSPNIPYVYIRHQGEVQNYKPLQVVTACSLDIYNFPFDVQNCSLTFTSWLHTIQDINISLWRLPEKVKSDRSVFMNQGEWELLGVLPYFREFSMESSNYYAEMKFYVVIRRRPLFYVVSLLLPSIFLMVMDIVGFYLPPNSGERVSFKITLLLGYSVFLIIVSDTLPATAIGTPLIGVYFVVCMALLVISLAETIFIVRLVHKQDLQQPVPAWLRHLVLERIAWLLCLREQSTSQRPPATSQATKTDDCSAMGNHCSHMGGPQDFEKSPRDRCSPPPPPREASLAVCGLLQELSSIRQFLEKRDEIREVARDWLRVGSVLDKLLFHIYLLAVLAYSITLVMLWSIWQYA
In words: Displacement of [3H]BRL43694 from human recombinant 5-HT3 receptor expressed in CHO cells at 10 uM measured after 120 mins by radioligand completion assay relative to control. It is filed as cell-based.

Data set [9] addresses T4, 5-hydroxytryptamine receptor 1A (Homo sapiens). In words: Displacement of [3H][…] from human recombinant 5-HT1A receptor expressed in cells at 10 uM measured after 60 to 90 mins by radioligand completion assay relative to control. Type of data set: cell-based. Particulars: time 60-90 min.
The target of data set [10] is T1, 5-hydroxytryptamine receptor 2B. In words: Displacement of [125I](+/-)DOI from human recombinant 5-HT2B receptor expressed in CHO cells at 100 nM measured after 60 mins by radioligand completion assay relative to control. Type of data set: cell-based.
For data set [11], the target named is T5, 5-hydroxytryptamine receptor 2C (Homo sapiens). In words: Displacement of [125I](+/-)DOI from human recombinant 5-HT2C receptor expressed in CHO cells at 10 uM measured after 60 mins by radioligand completion assay relative to control. Type of data set: cell-based.
The target in data set [12] is T6, 5-hydroxytryptamine receptor 3A (Homo sapiens). Nature of the data set: Displacement of [3H]BRL43694 from human recombinant 5-HT3 receptor expressed in CHO cells at 100 nM measured after 120 mins by radioligand completion assay relative to control. Type of data set: cell-based.
Data set [13] relates to Rattus norvegicus. Type of data set: functional. Particulars: Sprague-Dawley, route iv.
Data set [14] has as its target T7, 5-hydroxytryptamine receptor 2C (Homo sapiens, UniProt P28335).
T7 sequence (P28335 whole entry): T5 sequence (whole entry)
Nature of the data set: biochemical.

Data set [15] concerns Rattus norvegicus. It is filed as functional. As to conditions: Sprague-Dawley, route ip, time 15 min.
Data set [16] addresses T3, 5-hydroxytryptamine receptor 2A. In words: Displacement of [3H]LSD from human recombinant 5-HT2A receptor expressed in HEK cells by radioligand completion assay relative to control. Type of data set: cell-based.
Data set [17] has as its system Rattus norvegicus. It is filed as functional. Particulars: Sprague-Dawley, route iv. This is another data set of the same source.
A short description of data set [18]: AUCinfinity in Sprague-Dawley rat at […], iv. Type of data set: ADME, organism-based. Particulars: in vivo.
Data set [19] deals with T2, 5-hydroxytryptamine receptor 1A. In words: Displacement of [3H][…] from human recombinant 5-HT1A receptor expressed in HEK cells measured after 60 to 90 mins by radioligand completion assay relative to control. It is filed as cell-based.
For data set [20], the target named is 5-hydroxytryptamine receptor 1B (Rattus norvegicus) (UniProt P28564). Nature of the data set: Displacement of [125I]CYP from rat cerebral cortex 5-HT1B receptor at 10 uM measured after 120 mins by radioligand completion assay relative to control. It is filed as tissue-based.
Data set [21] has as its target T1, 5-hydroxytryptamine receptor 2B. In words: Displacement of [3H]LSD from human recombinant 5-HT2B receptor expressed in CHO cells by radioligand completion assay relative to control. It is filed as cell-based.
In data set [22] the test system is Rattus norvegicus. It is filed as functional, organism-based. As to conditions: Sprague-Dawley, dose 1.0 mg/kg, route ip, time 15.0 min.
For data set [23], the target named is T2, 5-hydroxytryptamine receptor 1A. Nature of the data set: Displacement of [3H]5-CT from human recombinant 5-HT1A receptor expressed in CHO cells measured after 60 to 90 mins by radioligand completion assay relative to control. Type of data set: cell-based.
A short description of data set [24]: Apparent volume of distributed in Sprague-Dawley rat at 5 mg/kg, iv. Type of data set: ADME, organism-based. Particulars: in vivo, read-out: Vz.
The nature of data set [25]: AUCinfinity in Sprague-Dawley rat at 5 mg/kg, iv. Details: time infinity, dose 5 mg/kg, route iv. Type of data set: ADME, organism-based. As to conditions: in vivo.
Data set [26] can be described thus: Clearence in Sprague-Dawley rat at 5 mg/kg, iv. It is filed as ADME, organism-based. Particulars: in vivo.
In data set [27] the target is 5-hydroxytryptamine receptor 7 (Homo sapiens, UniProt P34969). Nature of the data set: biochemical.

SMILES strings stand for the structures. Activity calls are given as the source filed them. No cut-off for these calls is given here.

Chain of 5-hydroxytryptamine receptor 1B (Rattus norvegicus) (P28564 whole entry): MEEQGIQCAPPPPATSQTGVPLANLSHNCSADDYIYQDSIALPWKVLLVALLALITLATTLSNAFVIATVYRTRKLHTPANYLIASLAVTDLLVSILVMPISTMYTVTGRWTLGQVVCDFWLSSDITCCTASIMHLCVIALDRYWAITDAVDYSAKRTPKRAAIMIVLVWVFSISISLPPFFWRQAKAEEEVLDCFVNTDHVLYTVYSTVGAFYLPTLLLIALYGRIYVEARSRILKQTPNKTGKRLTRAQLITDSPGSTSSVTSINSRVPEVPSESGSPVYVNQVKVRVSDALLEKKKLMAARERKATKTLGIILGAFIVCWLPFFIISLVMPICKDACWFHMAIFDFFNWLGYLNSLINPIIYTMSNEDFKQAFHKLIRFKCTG
T1 sequence (P41595 whole entry): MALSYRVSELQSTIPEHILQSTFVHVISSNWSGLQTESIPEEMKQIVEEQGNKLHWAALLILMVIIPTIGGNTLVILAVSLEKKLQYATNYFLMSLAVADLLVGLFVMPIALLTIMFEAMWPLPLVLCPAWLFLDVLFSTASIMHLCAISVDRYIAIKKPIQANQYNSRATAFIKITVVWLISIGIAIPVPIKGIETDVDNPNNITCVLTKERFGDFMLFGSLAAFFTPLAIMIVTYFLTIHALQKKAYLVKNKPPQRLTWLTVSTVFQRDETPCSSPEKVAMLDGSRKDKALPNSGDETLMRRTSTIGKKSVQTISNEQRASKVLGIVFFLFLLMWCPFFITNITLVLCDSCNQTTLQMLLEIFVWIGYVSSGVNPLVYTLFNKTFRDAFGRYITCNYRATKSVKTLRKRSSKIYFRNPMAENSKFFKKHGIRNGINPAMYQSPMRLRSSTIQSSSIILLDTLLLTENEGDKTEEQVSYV
T3 sequence (P28223 whole entry): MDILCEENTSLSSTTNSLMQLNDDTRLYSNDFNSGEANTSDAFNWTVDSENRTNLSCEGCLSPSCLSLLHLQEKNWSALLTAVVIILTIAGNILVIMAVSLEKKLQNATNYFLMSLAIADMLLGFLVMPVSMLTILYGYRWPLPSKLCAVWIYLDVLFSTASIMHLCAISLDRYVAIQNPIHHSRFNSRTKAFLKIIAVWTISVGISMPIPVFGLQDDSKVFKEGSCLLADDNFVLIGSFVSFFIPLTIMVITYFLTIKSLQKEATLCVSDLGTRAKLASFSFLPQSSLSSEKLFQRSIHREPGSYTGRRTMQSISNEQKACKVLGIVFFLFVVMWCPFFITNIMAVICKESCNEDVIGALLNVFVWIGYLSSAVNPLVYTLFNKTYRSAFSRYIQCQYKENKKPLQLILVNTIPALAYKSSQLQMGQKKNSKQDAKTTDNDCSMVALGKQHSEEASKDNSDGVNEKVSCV
Chain of 5-hydroxytryptamine receptor 7 (P34969 whole entry): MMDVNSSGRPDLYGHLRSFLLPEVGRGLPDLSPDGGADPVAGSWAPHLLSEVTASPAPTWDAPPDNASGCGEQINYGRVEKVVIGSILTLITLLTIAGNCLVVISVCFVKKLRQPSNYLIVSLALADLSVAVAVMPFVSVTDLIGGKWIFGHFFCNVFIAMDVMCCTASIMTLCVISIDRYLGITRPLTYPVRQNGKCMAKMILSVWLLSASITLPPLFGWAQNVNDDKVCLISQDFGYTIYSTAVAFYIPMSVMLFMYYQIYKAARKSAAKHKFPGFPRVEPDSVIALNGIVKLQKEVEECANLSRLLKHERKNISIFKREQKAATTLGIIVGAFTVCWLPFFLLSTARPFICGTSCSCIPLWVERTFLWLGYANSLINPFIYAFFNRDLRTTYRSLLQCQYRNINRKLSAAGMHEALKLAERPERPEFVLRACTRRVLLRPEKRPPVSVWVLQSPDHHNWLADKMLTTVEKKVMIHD

Take `CC[C@H]1CN2CCc3c([nH]c4cccc(O)c34)[C@@H]2C[C@@H]1/C(=C\OC)C(=O)OC`: the values for the Ki in data set [1] and in data set [2] were 508 nM and 294 nM, respectively.

As to `COC(=O)C1=COC[C@H]2CN3CCc4c([nH]c5ccccc45)[C@@H]3C[C@H]12`, the Activity in [3] is 5.1%; in data set [4], 33.2%; in data set [5], 36.5%; in data set [6] it was -12.5%; in data set [7] (filed as agonist), 89.3%; in [8], 1.8%. Moreover, the Activity in data set [9] (filed as agonist) is 95.2%; in [10], 6.2%; in data set [11], -5.3%; in data set [12] it was -2.5%.

`CC[C@H]1CN2CCc3c([nH]c4cccc(OC)c34)[C@@H]2C[C@@H]1/C(=C\OC)C(=O)OC`: the ED50 in the data set on Rattus norvegicus [13] was 5.92 mg/kg; in the data set with Rattus norvegicus [15] it was 9.1 mg/kg; in the data set on Rattus norvegicus [17], 11.6 mg/kg. In addition, the Ki worked out at 5430 nM in data set [14]; 1320 nM in data set [16]; 108 nM in data set [1]; 95.5 nM in [2]; 38.5 nM in data set [19]; 23 nM in data set [21]. Besides, the Activity in data set [3] stood at 2.8%; in [4] (filed as agonist), 58.9%; in data set [8] it was 1.5%; in data set [20], 30.4%; in data set [9] (filed as agonist) it was 98.7%; in [11] (filed as agonist), 77.9%. Further, in data set [12], the Activity stood at 11.3%. The total exposure AUC(0-inf) in [18] was 495 ng·h/mL.

In the case of `O=C1c2ccccc2S(=O)(=O)N1CCCCN1CCN(c2ncccn2)CC1` [IPSAPIRONE], the ED50 stood at 3.41 mg/kg in the data set on Rattus norvegicus [13], 0.431 mg/kg in the data set on Rattus norvegicus [15] and 7.68 mg/kg in the data set on Rattus norvegicus [17]. In addition, the result with Rattus norvegicus [22] was inactive. The Ki in data set [23] was found to be 49.7 nM.

Take `CC[C@@H]1CN2CCc3c([nH]c4cccc(OC)c34)[C@H]2C[C@@H]1/C(=C\OC)C(=O)OC`: the Activity in [3] was 1.5%; in [4] it was -4.8%; in data set [5] (filed as agonist), 68.1%; in data set [6], 0.4%; in data set [7] (filed as agonist), 47.1%; in [8], 0.7%. Further, the Activity in data set [20] is 16.8%; in data set [9] it was 33.3%; in data set [10] it was -3.4%; in data set [11] it was 14.3%; in data set [12], 11.1%.

In the case of `C=C[C@H]1CN2CCc3c([nH]c4cccc(O)c34)[C@@H]2C[C@@H]1/C(=C\OC)C(=O)OC`, the Ki in [1] was determined as 336 nM; in [2], 97.7 nM.

For the molecule `CC[C@@H]1CN2CCc3c([nH]c4cccc(OC)c34)[C@@H]2C[C@@H]1/C(=C\OC)C(=O)OC`, the Ki in data set [14] was greater than 10000 nM; in data set [16], 5010 nM; in [1], 1260 nM; in [2] it was 5880 nM. Moreover, the Activity was -0.9% in [3]; 9.7% in data set [4]; 49.9% in [5] (filed as agonist); -8.2% in [6]; 90.7% in data set [7] (filed as agonist); -12.7% in data set [8]. The Activity in data set [20] was 8.2%; in data set [9] (filed as agonist), 76.7%; in [10], 23%; in data set [11], 14.7%; in [12] it was -9.1%. The Vd in data set [24] is 8 L/kg. In addition, the ED50 in the data set on Rattus norvegicus [15] was determined as 26.8 mg/kg. Further, the AUC in data set [25] is 849.8 ng·h/mL. Besides, the CL in data set [26] was 21.7 mL/min/kg.

For the molecule `C=C[C@H]1CN2CCc3c([nH]c4cccc(OC)c34)[C@@H]2C[C@@H]1/C(=C\OC)C(=O)OC`, the ED50 stood at 5.45 mg/kg in the data set with Rattus norvegicus [13] and […] with Rattus norvegicus [15]. Besides, the Ki in [14] is 1770 nM; in data set [16], 815 nM; in data set [1], 83.1 nM; in data set [2], 71.8 nM; in [27], 870 nM; in data set [19], 32 nM. For the same molecule, in [21], the inhibitory constant (Ki) was determined as 20 nM.

As to `CC[C@@H]1CN2CC[C@@]3(O)C(=Nc4cccc(OC)c43)[C@@H]2C[C@@H]1/C(=C\OC)C(=O)OC`, the Activity was -0.2% in data set [3]; 3.1% in data set [4]; 3.9% in data set [5]; -18.3% in [6]; 12.4% in data set [7]; 19.5% in data set [8]. For the same molecule, the Activity in data set [20] is -0.8%; in data set [9] it was 1.2%; in [10], -1.4%; in data set [11] it was -13.9%; in [12], 8.2%.
